Holding throughout (assay type): biochemical
Experiment [1] has as its target T1, MAGL (Mus musculus, UniProt O35678).
T1 construct: Proteomes (mouse brain membrane fraction or cell lysates); from tissue; host or cells: mouse brain membrane fraction (or unspecified cell lysates)
T1 sequence (O35678 1-303): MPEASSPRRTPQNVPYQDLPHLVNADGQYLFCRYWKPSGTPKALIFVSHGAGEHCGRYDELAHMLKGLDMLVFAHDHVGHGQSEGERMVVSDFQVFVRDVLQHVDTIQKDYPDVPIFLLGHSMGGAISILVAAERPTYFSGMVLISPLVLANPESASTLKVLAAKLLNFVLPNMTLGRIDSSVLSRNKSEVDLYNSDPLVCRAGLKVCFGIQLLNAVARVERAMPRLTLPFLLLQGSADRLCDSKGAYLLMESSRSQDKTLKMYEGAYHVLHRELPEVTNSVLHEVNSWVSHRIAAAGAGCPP
The experiment can be described thus: In vitro competitive activity-based protein profiling (mouse), MAGL. Conditions: for inhibition at 1 µM: mouse proteome, in vitro, read-out: % Inhibition at 1 μM MAGL; for IC50: mouse brain membrane fraction or cell lysates, 30 min preincubation at 37° C, FP-Rh probe. On the procedure: (§1) In Vitro Competitive Activity-Based Protein Profiling (Mouse).
(§2) Proteomes (mouse brain membrane fraction or cell lysates) (50 μL, 1.0 mg/mL total protein concentration) were preincubated with varying concentrations of inhibitors at 37° C. After 30 min, FP-Rh (1.0 μL, 50 μM in DMSO) was added and the mixture was incubated for another 30 min at 37° C. Reactions were quenched with SDS loading buffer (50 μL-4×) and run on SDS-PAGE.

Experiment [2] has as its target T2, FAAH (Mus musculus, UniProt O08914).
T2 construct: Proteomes (mouse brain membrane fraction or cell lysates); from tissue; host or cells: mouse brain membrane fraction (or unspecified cell lysates)
T2 sequence (O08914 1-579): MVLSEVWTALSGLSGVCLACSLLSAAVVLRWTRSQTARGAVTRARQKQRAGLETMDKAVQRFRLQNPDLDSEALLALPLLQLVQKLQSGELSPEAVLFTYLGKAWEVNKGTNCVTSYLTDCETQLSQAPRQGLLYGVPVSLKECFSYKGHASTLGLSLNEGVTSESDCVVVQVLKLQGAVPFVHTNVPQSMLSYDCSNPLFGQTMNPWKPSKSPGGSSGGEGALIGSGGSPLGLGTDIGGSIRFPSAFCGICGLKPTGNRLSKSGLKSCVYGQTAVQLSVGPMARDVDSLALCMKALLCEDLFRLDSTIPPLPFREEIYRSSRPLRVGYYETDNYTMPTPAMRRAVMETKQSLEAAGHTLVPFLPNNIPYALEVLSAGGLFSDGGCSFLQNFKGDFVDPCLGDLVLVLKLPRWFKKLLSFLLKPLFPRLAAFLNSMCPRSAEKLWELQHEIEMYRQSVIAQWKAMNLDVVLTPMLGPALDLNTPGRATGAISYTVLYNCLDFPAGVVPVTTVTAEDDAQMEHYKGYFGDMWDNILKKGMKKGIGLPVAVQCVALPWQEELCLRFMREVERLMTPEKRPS
Description: In vitro competitive activity-based protein profiling (mouse), FAAH. Conditions: for inhibition at 1 µM: mouse proteome, in vitro; for IC50: mouse brain membrane fraction or cell lysates, 30 min preincubation at 37° C, FP-Rh probe. On the procedure:
as §1
Proteomes (mouse brain membrane fraction or cell lysates) (50 μL, 1.0 mg/mL total protein concentration) were preincubated with varying concentrations of inhibitors at 37° C. After 30 min, FP-Rh (1.0 μL, 50 μM in DMSO) was added and the mixture was incubated for another 30 min at 37° C. Reactions were quenched with SDS loading buffer (50 μL-4×) and run on SDS-PAGE. Following gel imaging, serine hydrolase activity was determined by measuring fluorescent intensity of gel bands corresponding to MAGL, ABHD6 and FAAH using ImageJ 1.43u software.

For experiment [3], the target named is T3, ABHD6 (Mus musculus, UniProt Q8R2Y0).
T3 construct: Proteomes (mouse brain membrane fraction or cell lysates); from tissue; host or cells: mouse brain membrane fraction (or unspecified cell lysates)
T3 sequence (Q8R2Y0 1-336): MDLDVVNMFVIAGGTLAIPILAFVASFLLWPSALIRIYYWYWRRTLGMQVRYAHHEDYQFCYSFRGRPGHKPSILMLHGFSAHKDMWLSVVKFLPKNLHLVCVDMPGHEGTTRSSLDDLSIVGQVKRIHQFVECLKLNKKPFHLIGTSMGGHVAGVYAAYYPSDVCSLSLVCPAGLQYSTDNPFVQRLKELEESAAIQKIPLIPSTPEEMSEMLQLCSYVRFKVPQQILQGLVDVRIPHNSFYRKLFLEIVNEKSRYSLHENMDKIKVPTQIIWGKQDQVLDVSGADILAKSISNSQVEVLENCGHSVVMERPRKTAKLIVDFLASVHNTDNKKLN
The experiment can be described thus: In vitro competitive activity-based protein profiling (mouse), ABHD6. Particulars: for inhibition at 1 µM: mouse proteome, in vitro, read-out: % Inhibition at 1 μM ABHD6; for IC50: mouse brain membrane fraction or cell lysates, 30 min preincubation at 37° C, FP-Rh probe. How it is done:
as §1, §2

Some results are limits rather than exact numbers.

In the case of `Cc1c(CN2CCN(C(=O)OC(C(F)(F)F)C(F)(F)F)CC2)cccc1CN1CCCC[C@@H]1C` [Example 20, 1,1,1,3,3,3-hexafluoropropan-2-yl (S)-4-(2-methyl-3-((2-methylpiperidin-1-yl)methyl)benzyl)piperazine-1-carboxylate], the inhibition (usually the relative decrease from the control value, in per cent) at 1 µM was over 75% in experiment [1], under 25% in experiment [2] and over 75% in experiment [3]. The half-inhibitory concentration (IC50) (commonly the concentration that gives 50% inhibition) in experiment [1] is 100 to 1000 nM; in experiment [2], over 1000 nM; in experiment [3], 100 to 1000 nM.

`Cc1c(CN2CCOCC2)cccc1CN1CCN(C(=O)OC(C(F)(F)F)C(F)(F)F)CC1` [Example 21, 1,1,1,3,3,3-hexafluoropropan-2-yl 4-(2-methyl-3-(morpholinomethyl)benzyl)piperazine-1-carboxylate]: the inhibition at 1 µM was over 75% in experiment [1], under 25% in experiment [2] and over 75% in experiment [3]. Besides, the half-maximal inhibitory concentration (IC50) in experiment [1] was 100 to 1000 nM; in experiment [2], over 1000 nM; in experiment [3], 100 to 1000 nM.

Take `O=C(OC(C(F)(F)F)C(F)(F)F)N1CCN(Cc2cccc(CN3CCOCC3)c2F)CC1` [Example 22, 1,1,1,3,3,3-hexafluoropropan-2-yl 4-(2-fluoro-3-(morpholinomethyl)benzyl)piperazine-1-carboxylate]: the inhibition at 1 µM is over 75% in experiment [1], under 25% in experiment [2] and over 75% in experiment [3]. For the same compound, the IC50 in experiment [1] is under 100 nM; in experiment [2], over 1000 nM; in experiment [3], 100 to 1000 nM.

Regarding `O=C(OC(C(F)(F)F)C(F)(F)F)N1CCN(Cc2ccc(CN3CCCCC3)cc2OC(F)(F)F)CC1` [Example 24, 1,1,1,3,3,3-hexafluoropropan-2-yl 4-(4-(piperidin-1-ylmethyl)-2-(trifluoromethoxy)benzyl)piperazine-1-carboxylate], the inhibition at 1 µM in experiment [1] was over 75%; in experiment [2], under 25%; in experiment [3], under 25%. Further, the figures for the IC50 in experiment [1], in experiment [2] and in experiment [3] were 100 to 1000 nM, over 1000 nM and over 1000 nM, respectively.

In the case of `O=C(OC(C(F)(F)F)C(F)(F)F)N1CCN(Cc2ccc(CN3CCCC3)cc2OC(F)(F)F)CC1` [Example 25, 1,1,1,3,3,3-hexafluoropropan-2-yl 4-(4-(pyrrolidin-1-ylmethyl)-2-(trifluoromethoxy)benzyl)piperazine-1-carboxylate], the inhibition at 1 µM in experiment [1] is over 75%; in experiment [2], under 25%; in experiment [3], under 25%. The values for the IC50 in experiment [1], in experiment [2] and in experiment [3] were 100 to 1000 nM, over 1000 nM and over 1000 nM, respectively.

Take `O=C(OC(C(F)(F)F)C(F)(F)F)N1CCN(Cc2ccc(N3CC4CCC(C3)O4)cc2F)CC1` [Example 27, 1,1,1,3,3,3-hexafluoropropan-2-yl 4-(4-(8-oxa-3-azabicyclo[3.2.1]octan-3-yl)-2-fluorobenzyl)piperazine-1-carboxylate]: the inhibition at 1 µM in experiment [1] is over 75%; in experiment [2] it was under 25%; in experiment [3], 25 to 75%. Moreover, the values for the concentration for half-maximal inhibition (IC50) in experiment [1], in experiment [2] and in experiment [3] were under 100 nM, over 1000 nM and 100 to 1000 nM, respectively.

`O=C(OC(C(F)(F)F)C(F)(F)F)N1CCN(Cc2ccc(N3CC4CCC(C3)O4)cc2OC(F)(F)F)CC1` [Example 28, 1,1,1,3,3,3-hexafluoropropan-2-yl 4-(4-(8-oxa-3-azabicyclo[3.2.1]octan-3-yl)-2-(trifluoromethoxy)benzyl)piperazine-1-carboxylate]: the inhibition at 1 µM in experiment [1] was over 75%; in experiment [2], under 25%; in experiment [3], under 25%. The IC50 in experiment [1] was 100 to 1000 nM; in experiment [2], over 1000 nM; in experiment [3], over 1000 nM.

For `O=C(OC(C(F)(F)F)C(F)(F)F)N1CCN(Cc2cc(Cl)cc(CN3CCCC3)c2)CC1` [Example 29, 1,1,1,3,3,3-hexafluoropropan-2-yl 4-(3-chloro-5-(pyrrolidin-1-ylmethyl)benzyl)piperazine-1-carboxylate], the inhibition at 1 µM in experiment [1] was over 75%; in experiment [2] it was under 25%; in experiment [3] it was under 25%. In addition, the IC50 is 100 to 1000 nM in experiment [1], over 1000 nM in experiment [2] and over 1000 nM in experiment [3].

`CN(C)C(=O)C1CCN(c2cc(Cl)ccc2CN2CCN(C(=O)OC(C(F)(F)F)C(F)(F)F)CC2)CC1` [Example 34, 1,1,1,3,3,3-hexafluoropropan-2-yl 4-(4-chloro-2-(4-(dimethylcarbamoyl)piperidin-1-yl)benzyl)piperazine-1-carboxylate]: the inhibition at 1 µM is over 75% in experiment [1], under 25% in experiment [2] and under 25% in experiment [3]. The IC50 in experiment [1] was 100 to 1000 nM; in experiment [2], over 1000 nM; in experiment [3] it was over 1000 nM.

In the case of `NC(=O)C1CCN(c2cc(C(F)(F)F)ccc2CN2CCN(C(=O)OC(C(F)(F)F)C(F)(F)F)CC2)CC1` [Example 36, 1,1,1,3,3,3-hexafluoropropan-2-yl 4-(2-(4-carbamoylpiperidin-1-yl)-4-(trifluoromethyl)benzyl)piperazine-1-carboxylate], the inhibition at 1 µM in experiment [1] is over 75%; in experiment [2] it was under 25%; in experiment [3] it was over 75%. Further, the IC50 in experiment [1] is under 100 nM; in experiment [2], over 1000 nM; in experiment [3], 100 to 1000 nM.

`O=C(OC(C(F)(F)F)C(F)(F)F)N1CCN(Cc2ccc(Cl)cc2N2CCC(C(=O)N3CCCC3)CC2)CC1` [Example 37, 1,1,1,3,3,3-hexafluoropropan-2-yl 4-(4-chloro-2-(4-(pyrrolidine-1-carbonyl)piperidin-1-yl)benzyl)piperazine-1-carboxylate]: the inhibition at 1 µM was over 75% in experiment [1], under 25% in experiment [2] and under 25% in experiment [3]. For the same compound, the results for the half-inhibitory concentration (IC50) in experiment [1], in experiment [2] and in experiment [3] were 100 to 1000 nM, over 1000 nM and over 1000 nM, respectively.

Regarding `Cc1cc(C)n(C2CN(c3cc(Cl)ccc3CN3CCN(C(=O)OC(C(F)(F)F)C(F)(F)F)CC3)C2)n1` [Example 38, 1,1,1,3,3,3-hexafluoropropan-2-yl 4-(4-chloro-2-(3-(3,5-dimethyl-1H-pyrazol-1-yl)azetidin-1-yl)benzyl)piperazine-1-carboxylate], the inhibition at 1 µM is over 75% in experiment [1], under 25% in experiment [2] and under 25% in experiment [3]. In addition, the IC50 in experiment [1] was under 100 nM; in experiment [2], over 1000 nM; in experiment [3], 100 to 1000 nM.

On to `O=C(OC(C(F)(F)F)C(F)(F)F)N1CCN(Cc2ccc(Cl)cc2N2CC[C@H](N3CCCS3(=O)=O)C2)CC1` [Example 46, 1,1,1,3,3,3-hexafluoropropan-2-yl (S)-4-(4-chloro-2-(3-(1,1-dioxidoisothiazolidin-2-yl)pyrrolidin-1-yl)benzyl)piperazine-1-carboxylate], for which the inhibition at 1 µM in experiment [1] is over 75%; in experiment [2], 25 to 75%; in experiment [3], 25 to 75%. Besides, the IC50 in experiment [1] was under 100 nM; in experiment [2] it was over 1000 nM; in experiment [3], over 1000 nM.

The record behind these values is patent US9771341B2, “Piperazine carbamates and methods of making and using same” (Abide Therapeutics, Inc., priority 2015, dated 2017).
